We go through 2 compounds from ChEMBL document CHEMBL4706545, “Antiproliferative effect of mitochondria-targeting allobetulin 1,2,3-triazolium salt derivatives and their mechanism of inducing apoptosis of cancer cells” (Eur J Med Chem, 2020).

Activity calls are given as the source filed them. The calls are words filed in the database; no cut-off is given here.

Test [1] concerns ECa-109 cell line. Nature of the test: Induction of apoptosis in human ECa-109 cells assessed as viable cells at 2 uM incubated for 48 hrs by annexin-V-FITC and PI staining based fluorescence microscopic analysis (reference value: 95.8 %). As to conditions: read-out: Activity. It counts as functional.
Test [2] has as its system ECa-109 cell line. Nature of the test: Induction of cell cycle arrest in human ECa-109 cells assessed as accumulation in S phase at 2 uM incubated for 48 hrs by PI staining based flow cytometry analysis (reference value: 39.33 %). The format is functional. In general terms: In flow cytometry, cells or beads pass a laser one at a time.
Test [3] deals with ECa-109 cell line. The test is described as follows: Induction of apoptosis in human ECa-109 cells assessed as necrotic cells at 2 uM incubated for 48 hrs by annexin-V-FITC and PI staining based fluorescence microscopic analysis (reference value: 1.19 %). The format is functional.
In test [4] the test system is ECa-109 cell line. The test is described as follows: Induction of apoptosis in human ECa-109 cells assessed as concentrated chromatin at 1 to 4 uM incubated for 48 hrs by Hoechst staining based fluorescence microscopic analysis. The format is functional, cell-based. As to conditions: dose 1-4 µM.
The nature of test [5]: Selectivity index, ratio of IC50 for cytotoxicity against human HL7702 cells to IC50 for cytotoxicity against human ECa-109 cells.
Test [6] concerns ECa-109 cell line. Nature of the test: Induction of cell cycle arrest in human ECa-109 cells assessed as accumulation in S phase at 1 uM incubated for 48 hrs by PI staining based flow cytometry analysis (reference value: 39.33 %). The format is functional.
For test [7], the system named is ECa-109 cell line. Nature of the test: Induction of ROS-mediated apoptosis in human ECa-109 cells assessed as necrotic cells at 1 uM incubated for 48 hrs in presence of NAC by annexin V-PE and 7-AAD staining based flow cytometry analysis (reference value: 1.09 %). It counts as functional.
Test [8] concerns ECa-109 cell line. Nature of the test: Induction of apoptosis in human ECa-109 cells assessed as nuclear fragmentation at 1 to 4 uM incubated for 48 hrs by Hoechst staining based fluorescence microscopic analysis. As to conditions: dose 1-4 µM. The format is functional, cell-based.
The test system of test [9] is ECa-109 cell line. Nature of the test: Induction of ROS-mediated apoptosis in human ECa-109 cells assessed as necrotic cells at 2 uM incubated for 48 hrs by annexin V-PE and 7-AAD staining based flow cytometry analysis (reference value: 0.729 %). It counts as functional.
Test [10] has as its system ECa-109 cell line. Nature of the test: Induction of ROS-mediated apoptosis in human ECa-109 cells assessed as early apoptotic cells at 1 uM incubated for 48 hrs in presence of NAC by annexin V-PE and 7-AAD staining based flow cytometry analysis (reference value: 1.90 %). It counts as functional.
The test system of test [11] is ECa-109 cell line. Nature of the test: Induction of cell cycle arrest in human ECa-109 cells assessed as accumulation in S phase at 4 uM incubated for 48 hrs by PI staining based flow cytometry analysis (reference value: 39.33 %). The format is functional.
The subject of test [12] is ECa-109 cell line. The test is described as follows: Induction of apoptosis in human ECa-109 cells assessed as decrease in caspase-3 incubated for 48 hrs by Western blot analysis. It counts as functional, cell-based. The conditions noted are these: dose 1-4 µM.
Test [13] deals with ECa-109 cell line. The test is described as follows: Induction of apoptosis in human ECa-109 cells assessed as early apoptotic cells at 2 uM incubated for 48 hrs by annexin-V-FITC and PI staining based fluorescence microscopic analysis (reference value: 0.971 %). The format is functional.
The subject of test [14] is ECa-109 cell line. The test is described as follows: Induction of cell cycle arrest in human ECa-109 cells assessed as accumulation in G0/G1 phase at 4 uM incubated for 48 hrs by PI staining based flow cytometry analysis (reference value: 52.28 %). The format is functional.
Test [15] relates to ECa-109 cell line. The test is described as follows: Induction of ROS-mediated apoptosis in human ECa-109 cells assessed as early apoptotic cells at 1 uM incubated for 48 hrs by annexin V-PE and 7-AAD staining based flow cytometry analysis (reference value: 2.70 %). The format is functional.
In test [16] the test system is ECa-109 cell line. The test is described as follows: Induction of apoptosis in human ECa-109 cells assessed as viable cells at 1 uM incubated for 48 hrs by annexin-V-FITC and PI staining based fluorescence microscopic analysis (reference value: 95.8 %). It counts as functional. As to conditions: read-out: Activity.
Test [17] relates to ECa-109 cell line. The test is described as follows: Induction of ROS-mediated apoptosis in human ECa-109 cells assessed as viable cells at 2 uM incubated for 48 hrs by annexin V-PE and 7-AAD staining based flow cytometry analysis (reference value: 92.7 %). It counts as functional. The conditions noted are these: read-out: Activity.
For test [18], the system named is ECa-109 cell line. Nature of the test: Induction of apoptosis in human ECa-109 cells assessed as late apoptotic cells at 2 uM incubated for 48 hrs by annexin-V-FITC and PI staining based fluorescence microscopic analysis (reference value: 2.01 %). The format is functional.
Test [19] concerns ECa-109 cell line. Nature of the test: Induction of ROS-mediated apoptosis in human ECa-109 cells assessed as necrotic cells at 1 uM incubated for 48 hrs by annexin V-PE and 7-AAD staining based flow cytometry analysis (reference value: 0.729 %). It counts as functional.
In test [20] the test system is SGC-7901. The test is described as follows: Induction of ROS-mediated apoptosis in human SGC-7901 cells assessed as late apoptotic cells at 4 uM incubated for 48 hrs by annexin V-PE and 7-AAD staining based flow cytometry analysis (reference value: 3.82 %). The format is functional.
Test [21] relates to SGC-7901. The test is described as follows: Induction of apoptosis in human SGC-7901 cells assessed as decrease in caspase-8 incubated for 48 hrs by Western blot analysis. The format is functional, cell-based. As to conditions: dose 1-4 µM.
The subject of test [22] is SGC-7901. The test is described as follows: Induction of ROS generation in human SGC-7901 cells incubated for 48 hrs by DCFH-DA staining based fluorescence microscopic analysis. The format is functional, cell-based. As to conditions: dose 1-4 µM.
The subject of test [23] is SGC-7901. Nature of the test: Induction of ROS-mediated apoptosis in human SGC-7901 cells assessed as necrotic cells at 2 uM incubated for 48 hrs in presence of NAC by annexin V-PE and 7-AAD staining based flow cytometry analysis (reference value: 0.623 %). It counts as functional.
Test [24] deals with SGC-7901. Nature of the test: Induction of cell cycle arrest in human SGC-7901 cells assessed as accumulation in S phase at 2 uM incubated for 48 hrs by PI staining based flow cytometry analysis (reference value: 31.13 %). The format is functional.
In test [25] the test system is SGC-7901. The test is described as follows: Induction of ROS-mediated apoptosis in human SGC-7901 cells assessed as early apoptotic cells at 2 uM incubated for 48 hrs in presence of NAC by annexin V-PE and 7-AAD staining based flow cytometry analysis (reference value: 1.15 %). The format is functional.
The test system of test [26] is SGC-7901. Nature of the test: Induction of ROS-mediated apoptosis in human SGC-7901 cells assessed as late apoptotic cells at 2 uM incubated for 48 hrs by annexin V-PE and 7-AAD staining based flow cytometry analysis (reference value: 3.82 %). It counts as functional.
Test [27] concerns SGC-7901. Nature of the test: Induction of apoptosis in human SGC-7901 cells assessed as viable cells at 2 uM incubated for 48 hrs by annexin-V-FITC and PI staining based fluorescence microscopic analysis (reference value: 93.8 %). It counts as functional. As to conditions: read-out: Activity.
Test [28] deals with SGC-7901. The test is described as follows: Induction of apoptosis in human SGC-7901 cells assessed as necrotic cells at 2 uM incubated for 48 hrs by annexin-V-FITC and PI staining based fluorescence microscopic analysis (reference value: 1.03 %). The format is functional.
Test [29] relates to SGC-7901. The test is described as follows: Induction of ROS-mediated apoptosis in human SGC-7901 cells assessed as viable cells at 1 uM incubated for 48 hrs by annexin V-PE and 7-AAD staining based flow cytometry analysis (reference value: 93.6 %). As to conditions: read-out: Activity. The format is functional.
Test [30] has as its system SGC-7901. Nature of the test: Induction of ROS-mediated apoptosis in human SGC-7901 cells assessed as viable cells at 1 uM incubated for 48 hrs in presence of NAC by annexin V-PE and 7-AAD staining based flow cytometry analysis (reference value: 94.8 %). The conditions noted are these: read-out: Activity. It counts as functional.
For test [31], the system named is SGC-7901. Nature of the test: Induction of apoptosis in human SGC-7901 cells assessed as necrotic cells at 1 uM incubated for 48 hrs by annexin-V-FITC and PI staining based fluorescence microscopic analysis (reference value: 1.03 %). The format is functional.

In the case of `COc1ccccc1Cn1n[n+](C)c2c1C(C)(C)[C@@H]1CC[C@]3(C)[C@H](CC[C@@H]4[C@H]5[C@H]6OC[C@@]5(CCC6(C)C)CC[C@]43C)[C@@]1(C)C2.[I-]`, the results for the viability at 2 µM in [1] and in test [17] were 55.1% and 55%, respectively. Besides, the Activity in [2] came out at 40.19%; in test [3], 1.32%; in test [6] it was 35.03%; in [7] it was 2.07%; in test [9] it was 4.87%; in test [10], 8.01%. Also, the Activity was 43.8% in test [11]; “Dose-dependent effect” in test [12]; 20.5% in test [13]; 33.47% in test [14]; 11.6% in test [15]; 23% in [18]. For the same compound, in [19], the Activity is 2.92%. Besides, the outcome in [4] and in test [8] was Active. Further, the “Ratio IC50” value in [5] is 1.53. Further, in test [16], the viability at 1 µM stood at 69.1%.
With `C[n+]1nn(Cc2c(F)cccc2Cl)c2c1C[C@]1(C)[C@H]3CC[C@@H]4[C@H]5[C@H]6OC[C@@]5(CCC6(C)C)CC[C@@]4(C)[C@]3(C)CC[C@H]1C2(C)C.[I-]`, the Activity in test [20] was 99.6%; in test [21], “Dose-dependent effect”; in test [22], “Dose-dependent effect”; in test [23] it was 0.637%; in test [24], 15.76%; in test [25] it was 19.5%. Besides, the Activity in test [26] amounted to 12.3%; in test [28] it was 1.56%; in test [31], 1.56%. The viability at 2 µM in [27] turned out to be 64.6%. In addition, the viability at 1 µM worked out at 80.5% in test [29] and 87.7% in test [30].
